Data: patent publication US5606061A, “Thioformamide derivatives” (Eisai Co., Ltd., priority 1991, dated 1997)
Where two headings read alike, the source gives them in different places.

What was measured:
rat aorta = assay: Vasohypotonic activity on rat aorta specimen (inhibition of KCl-induced tension); assay type: cell-based, rat (SD); conditions: rat aorta spiral specimen, 20 mM KCl, 30° C., KCl tension = 100%
Protocol: (1) Vasohypotonic activity on rat aorta specimen
The compounds of the present invention were examined for vasohypotonic activity by the use of the aorta extirpated from a rat.
A pectoral aorta was speedily extirpated from an SD male rat having a weight of 250 to 400 g and a spiral specimen was prepared from the aorta. This specimen was vertically suspended in the Organbath which was filled with the Krebs-Henseleit solution at 30° C. and through which a gas mixture comprising 95% of oxygen and 5% of carbon dioxide was passed. The change in the tension of the specimen was isotonically determined under a load of 1 g.
After the tension of the specimen has been stabilized, 20 mM of KCl was added to the bath. After the generated tension had been stabilized, a test compound was cumulatively added to the Organbath to determine the relaxation.
The extent of the relaxation, i.e., the inhibitory activity against the generation of tension was determined by taking the tension generated by the addition of KCl as 100% to calculate the IC50 value.

[1] = tested on: right ventricular papillary muscle of guinea pig; assay: Activity on the action potential duration of the right ventricular papillary muscle of guinea pig (potassium channel activating effect); assay type: cell-based, guinea pig (Hartley); conditions: Cavia porcellus, 0.5 h, 1 Hz, 36 ±0.5° C., 30 minutes each concentration, read-out: Concn. at which APD90 is shortened to 50% of the initial one IC50 (converted)
From the text: (2) Activity on the action potential duration of the right ventricular papillary muscle of guinea pig
The compounds of the present invention were examined for the potassium channel activating effect by the use of the right ventricular papillary muscle of a guinea pig.
An action potential duration at 90% repolarization (hereinafter abbreviated to "APD90 ") reflects an outward potassium current. A compound having the potassium channel activating effect can activate the outward potassium channel to shorten the APD90 (see Proc. Natl. Acad. Sci., USA, 85, 8860 to 8864 (1988)).
A Hartley male guinea pig having a weight of 300 to 500 g was used. This guinea pig was killed by bleeding and the papillary muscle was extirpated from the right ventricle of the guinea pig and fixed in the Organbath. The surface of the papillary muscle was washed with Tyrode's solution at 36 ±0.5° C. through which an oxygen/carbon dioxide mixture was passed. The resulting specimen was stimulated by applying a rectangular wave pulse of 1 Hz to record the action potential by the glass microelectrode method.
After the action potential had been stabilized, the specimen was washed with Tyrode's solutions containing a test compound each for 30 minutes to determine the dose-response curve.

[2] = tested on: anesthetized thoracotomized dog; assay: Hypotensive activity and coronary bloodflow increasing activity on anesthetized thoracotomized dog; assay type: in vivo, dog (crossbred); conditions: Canis lupus familiaris, intravenous, 3 μg/kg
From the text: (3) Hypotensive activity and coronary bloodflow increasing activity on anesthetized thoracotomized dog
The compounds of the present invention were examined for hypotensive activity and coronary bloodflow increasing activity by the use of an anesthetized thoracotomized dog.
A crossbred adult dog was used. This dog was thoracotomized under inhalation anesthesia with an enflurane/laughing gas. The probe of an electromagnetic flowmeter was set on the ramus circumflexes of the left coronary artery to determine the coronary bloodflow. The arterial pressure was determined by making the tip of a catheter-tipped pressure transducer indwell in the arcus aortae.
Each test compound was intravenously administered in a dose of 3 μg/kg through a catheter inserted into the femoral vein.
The hypotensive activity and coronary bloodflow increasing activity of each test compound are given in Table 1 as the changes of the blood pressure and coronary bloodflow based on those before the administration of the compound.

[3] = tested on: spontaneously hypertensive rats (SHR); assay: Hypotensive activity on spontaneously hypertensive rat in waking state; assay type: in vivo; conditions: oral, 2 hours after administration, before administration = 100, control 93.3 ± 4.0, read-out: Blood pressure
Protocol: (4) Hypotensive activity on spontaneously hypertensive rat in waking state
The compounds of the present invention were examined for hypotensive activity by orally administrating them to spontaneously hypertensive rats (SHR).
The systolic pressure of a spontaneously hypertensive male rat (weight: 260 to 360 g) which had been fasted for 12 hours was bloodlessly determined by the tail cuff method. Each drug was suspended in a 0.5% aqueous solution of methylcellulose and orally administered in a dose of 1 mg/kg. only the solvent was administered to control rats.
The blood pressures of the rats after 2 hours from the administration are given in the Table 1 with the blood pressures before the administration being taking as 100.

[4] = change of blood pressure vs before administration, read-out: Change (%) hypotensive activity
[5] = change of coronary bloodflow vs before administration, read-out: Change (%) coronary blood-flow increasing activity

SMILES | IC50 (rat aorta) | IC50 [1] | change in vivo at 0.003 mg/kg [2, 4] | change in vivo at 0.003 mg/kg [2, 5] | response vs control in vivo at 1 mg/kg [3]
CNC(=S)C1(c2ccc3nccn3c2)CCCCC1=O (single isomer, unassigned; (-)) [Compound 1, (-)-1-(imidazo[1,2-a]pyridin-6-yl)-N-methyl-2-oxocyclohexanecarbothioamide] | 18.6 nM | 2630 nM | -22.1% | 78.6% | 51.6 ± 5.1%
CNC(=S)C1(c2ccc3nc(C)cn3c2)CCCCC1=O (single isomer, unassigned; (-)) [Compound 3, (-)-N-methyl-1-(2-methylimidazo-[1,2-a]pyridin-6-yl)-2-oxocyclohexanecarbothioamide] | 6.17 nM | 759 nM | -27% | 198% | 45.9 ± 3.9%
CNC(=S)C1(c2ccc3nccn3c2)CCCCC1OC(=O)c1ccccc1 (single isomer, unassigned; (-)) [Compound 4, (-)-2-benzoyloxy-1-(imidazo[1,2-a]pyridin-6-yl)-N-methylcyclohexanecarbothioamide] | 0.575 nM |  | -26.6% | 312% | 
CNC(=S)C1(c2ccc3nc(C(F)(F)F)cn3c2)CCCCC1=O (single isomer, unassigned; (-)) [Compound 12, (-)-1-(2-trifluoromethylimidazo-[1,2-a]pyridin-6-yl)-N-methyl-2-oxocyclohexanecarbothioamide] | 20 nM |  | -16.5% | 86.5% | 
CNC(=S)C1(c2ccc3nc(C)cn3c2)CCCC[S+]1[O-] (single isomer, unassigned; (-)) [Compound 13, (-)-2-(2-methylimidazo-[1,2-a]pyridin-6-yl)-N-methyltetrahydrothiopyran-2-carbonthioamide 1-oxide] | 20 nM |  | -30% | 228% | 
CNC(=S)C1(c2ccc3nccn3c2)CCCCC1OCc1ccccc1 (stereo not drawn) [Compound 5, 2-benzyloxy-1-(imidazo[1,2-a]pyridin-6-yl)-N-methylcyclohexanecarbothioamide] | 0.355 nM | 8.91 nM | -8.1% | 196% | 
CNC(=S)C1(c2ccc3nccn3c2)CCCCC1=NOCc1ccccc1 (stereo not drawn) [Compound 6, anti-2-benzyloxyimino-1-(imidazo[1,2-a]pyridin-6-yl)-N-methylcyclohexanecarbothioamide] | 1.91 nM | 204 nM | -25.2% | 67.5% | 59.3 ± 6.9%
CNC(=S)C1(c2ccc3nccn3c2)CCCCC1NCc1ccccc1 (stereo not drawn) [Compound 7] | 1.78 nM |  | -7.3% | 22.8% | 87.9 ± 0.1%
CNC(=S)C1(c2ccc3nccn3c2)CCCC[S+]1[O-] (stereo not drawn) [Compound 8, 2-(imidazo[1,2-a]pyridin-6-yl)-N-methyltetrahydrothiopyran-2-carbothioamide1-oxide] | 55 nM |  | -10.5% | 70.7% | 62 ± 6.5%
CNC(=S)C1(n2cnc([N+](=O)[O-])c2)CCCCC1OC(=O)c1ccccc1 (stereo not drawn) [Compound 9, 2-benzoyloxy-N-methyl-1-(4-nitroimidazol-1yl)cyclohexanecarbothioamide] | 11 nM | 479 nM | -14.9% | 131% | 62.4 ± 3.7%
CNC(=S)C1(n2cnc([N+](=O)[O-])c2)CCCCC1OCc1ccccc1 (stereo not drawn) [Compound 10, 2-benzyloxy-N-methyl-1-(4-nitroimidazol-1yl)cyclohexanecarbothioamide] | 0.49 nM | 51.3 nM | -16.3% | 169% | 58.8 ± 5.7%
CNC(=S)C1(n2cnc([N+](=O)[O-])c2)CCCCC1=NOCc1ccccc1 (stereo not drawn) [Compound 11, anti-2-benzyloxyimino-N-methyl-1-(4-nitroimidazol-1-yl)cyclohexanecarbothioamide] | 0.55 nM | 148 nM | -28.5% | 152% | 72.1 ± 4.5%
